Measurements from ChEMBL document CHEMBL1201862, “PubChem BioAssay data set” (2004).
“And” between values parts separate entries of the source, which are not always exact repeats. Equal entries are not always repeated.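 Results reflect a 48-hour exposure of cells in 96-well plates to compound at five concentrations. GI50 marks 50% less growth.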 The source made the active and inactive calls. No stated cut-off is given here; in the data, active = GI50 up to about 1.1 µM and inactive = higher.

What was measured:
Assay in all cases: NCI anticancer screen, dose series, 48 h
UACC-257 = tested on: UACC-257
COLO 205 = tested on: COLO 205
SR = tested on: SR
NCI-H522 = tested on: NCI-H522
A549 = tested on: A549
T47D = tested on: T47D
KM12 = tested on: KM12
Hs-578T = tested on: Hs-578T
NCI/ADR-RES = tested on: NCI/ADR-RES
SF-295 = tested on: SF-295
OVCAR-5 = tested on: OVCAR-5
MDA-N = tested on: MDA-N
NCI-H460 = tested on: NCI-H460
NCI-H23 = tested on: NCI-H23
SF-539 = tested on: SF-539
A498 = tested on: A498
OVCAR-4 = tested on: OVCAR-4
NCI-H226 = tested on: NCI-H226
Malme-3M = tested on: Malme-3M
BT-549 = tested on: BT-549

Measured: GI50

CC1C(c2ccc(Cl)cc2)c2cc3c(cc2OC1N1CCOCC1)OCO3 (stereo not drawn)
inactive: UACC-257 86.1 µM | COLO 205 > 100 µM | NCI-H522 46.3 µM | A549 75.7 µM | T47D 32.4 µM | KM12 > 100 µM | Hs-578T 23.9 µM | NCI/ADR-RES > 100 µM | SF-295 31.8 µM | OVCAR-5 > 100 µM | MDA-N > 100 µM | NCI-H460 > 100 µM | NCI-H23 > 100 µM | SF-539 45 µM
active: SR 0.931 µM

CCOC(=O)CCC(NC(=O)c1ccc(/N=C/c2nc3ccccc3nc2-c2ccccc2)cc1)C(=O)OCC (stereo not drawn)
inactive: A498 > 100 µM | UACC-257 > 100 µM | COLO 205 > 100 µM | SR > 100 µM | NCI-H522 > 100 µM | A549 > 100 µM | OVCAR-4 > 100 µM | KM12 > 100 µM | SF-295 > 100 µM | OVCAR-5 > 100 µM | NCI-H226 > 100 µM | Malme-3M > 100 µM | NCI-H460 > 100 µM | NCI-H23 > 100 µM | SF-539 > 100 µM

CC(C)N(C(=O)C12C3C4C5C3C1(C#N)C5C42)C(C)C (stereo not drawn)
inactive: A498 > 100 µM | UACC-257 > 100 µM | COLO 205 > 100 µM | SR > 100 µM | NCI-H522 > 100 µM | A549 > 100 µM | OVCAR-4 > 100 µM | KM12 > 100 µM | SF-295 > 100 µM | OVCAR-5 > 100 µM | NCI-H226 > 100 µM | Malme-3M > 100 µM | NCI-H460 > 100 µM | NCI-H23 > 100 µM | SF-539 > 100 µM

COc1cc(/C=C2/C(=O)N(C(=O)OC(C)C)C(Cc3cc(OC)c(OC)c(C)c3OC)C(=O)N2Cc2ccccc2)c(OC)c(C)c1OC (stereo not drawn)
inactive: A498 73.1 µM | UACC-257 7.94 µM | COLO 205 27.2 µM | SR 7.24 µM | NCI-H522 3.74 µM | A549 56.9 µM | OVCAR-4 20.9 µM | KM12 54.2 µM | SF-295 68.7 µM | OVCAR-5 > 100 µM | NCI-H226 3.35 µM | Malme-3M 22.2 µM | NCI-H460 3.51 µM | NCI-H23 13.2 µM | SF-539 > 100 µM

C=C1C(=O)OC2CC1C(OC(C)=O)C/C(C)=C/CC/C(C)=C\CCC2(C)O (stereo not drawn)
inactive: A498 5.22 µM and 5.52 µM | UACC-257 3.03 µM and 5.11 µM | COLO 205 3.98 µM and 3.92 µM | SR 1.29 µM | NCI-H522 1.44 µM and 1.36 µM | A549 16 µM and 17.2 µM | T47D 3.4 µM and 4.56 µM | OVCAR-4 6.35 µM and 5.73 µM | Hs-578T 5.87 µM and 3.79 µM | NCI/ADR-RES 3.66 µM and 3.49 µM | SF-295 21.3 µM and 17.2 µM | OVCAR-5 10.9 µM and 16.5 µM | Malme-3M 3.25 µM | MDA-N 2.92 µM and 4.09 µM | NCI-H460 2.11 µM and 3.41 µM | SF-539 3.48 µM and 5.43 µM

S=C1/C(=N/c2ccccc2)N(c2ccccc2)/C(=N\c2ccccn2)N1c1ccccc1
active: SF-539 < 0.01 µM
inactive: A498 14.5 µM | UACC-257 14.3 µM | COLO 205 10.8 µM | SR 7.83 µM | NCI-H522 1.63 µM | A549 17.8 µM | T47D 15 µM | OVCAR-4 14.6 µM | KM12 12.9 µM | Hs-578T 14.9 µM | NCI/ADR-RES 16.7 µM | SF-295 16.3 µM | OVCAR-5 16.4 µM | NCI-H226 18.2 µM | Malme-3M 16.9 µM | MDA-N 6.3 µM | NCI-H460 13.6 µM | NCI-H23 12.3 µM

O=C1CCCc2ccc3c(c21)CC1(Cc2ccccc2C1)C3
inactive: A498 25.6 µM | UACC-257 21.4 µM | COLO 205 17.2 µM | NCI-H522 23.9 µM | A549 34.7 µM | T47D 44.2 µM | OVCAR-4 17.2 µM | KM12 38.9 µM | Hs-578T 25.9 µM | NCI/ADR-RES 50.6 µM | SF-295 24.2 µM | OVCAR-5 31 µM | NCI-H226 13.3 µM | Malme-3M 33.2 µM | MDA-N 19 µM | NCI-H23 36.8 µM | SF-539 31.6 µM

Cn1c(S)nc2c(Cl)cc(Cl)cc2c1=O
inactive: BT-549 > 100 µM | UACC-257 > 100 µM | COLO 205 > 100 µM | NCI-H522 44.1 µM | A549 > 100 µM | OVCAR-4 > 100 µM | KM12 > 100 µM | Hs-578T > 100 µM | NCI/ADR-RES > 100 µM | SF-295 > 100 µM | OVCAR-5 > 100 µM | MDA-N > 100 µM | NCI-H460 > 100 µM | NCI-H23 > 100 µM | SF-539 42.8 µM

CN(C)CC(/C(Cc1ccccc1)=N\NC(=O)C[n+]1ccccc1)c1ccccc1 (stereo not drawn)
inactive: A498 > 100 µM | UACC-257 > 100 µM | COLO 205 > 100 µM | SR > 100 µM | NCI-H522 80.9 µM | A549 > 100 µM | OVCAR-4 > 100 µM | KM12 > 100 µM | SF-295 > 100 µM | OVCAR-5 > 100 µM | NCI-H226 > 100 µM | Malme-3M > 100 µM | NCI-H460 > 100 µM | NCI-H23 > 100 µM | SF-539 > 100 µM

[N-]=[N+]=CC(=O)OCCCCl
inactive: A498 > 100 µM | BT-549 > 100 µM | UACC-257 > 100 µM | COLO 205 > 100 µM | SR 4.25 µM | NCI-H522 > 100 µM | OVCAR-4 > 100 µM | KM12 > 100 µM | SF-295 > 100 µM | OVCAR-5 > 100 µM | NCI-H226 > 100 µM | Malme-3M > 100 µM | MDA-N > 100 µM | NCI-H460 4.37 µM | NCI-H23 > 100 µM

CNC(=S)N/N=C1\C(=O)N(CN2CCOCC2)c2ccc([N+](=O)[O-])cc21
inactive: A498 24.5 µM | UACC-257 25.4 µM | COLO 205 26.9 µM | SR 53.3 µM | A549 31.9 µM | T47D 18.9 µM | OVCAR-4 14.8 µM | KM12 22.8 µM | Hs-578T 25 µM | NCI/ADR-RES 16.3 µM | SF-295 18.2 µM | OVCAR-5 22.8 µM | NCI-H226 15.8 µM | Malme-3M 16.1 µM | MDA-N 67.9 µM | NCI-H460 23.4 µM | NCI-H23 17.7 µM | SF-539 17.7 µM

O=S(=O)(F)Cc1ccccc1 [PHENYLMETHYLSULFONYLFLUORIDE]
inactive: A498 > 100 µM | BT-549 > 100 µM | UACC-257 > 100 µM | COLO 205 > 100 µM | SR > 100 µM | NCI-H522 39.1 µM | A549 > 100 µM | OVCAR-4 > 100 µM | KM12 > 100 µM | NCI/ADR-RES > 100 µM | SF-295 > 100 µM | OVCAR-5 > 100 µM | NCI-H226 > 100 µM | MDA-N > 100 µM | NCI-H460 > 100 µM | NCI-H23 > 100 µM | SF-539 > 100 µM
active: Malme-3M 0.486 µM
